Test system: mouse-derived macrophage-like cell line RAW264.7
Assay: Evaluation of NO production amount by Griess method
Type: cell-based
Details: general statement of effect; based on suppression of NO production by M1 macrophage
Method: The mouse-derived macrophage-like cell line RAW264.7 was seeded in a 48 well plate 1×10^5 cells per well. After culture for 5 hr, Escherichia coli-derived lipopolysaccharide (LPS) was added to 100 ng/mL over 24 hr to activate RAW264.7 cells. Simultaneously with LPS, various compounds (No. 1-No. 17, LA, ALA) were added at 10 μM, and the concentration of […] (NO2^−), which is an oxide of nitric oxide (NO) produced by macrophage activation, in the culture medium was measured. The amount of NO2 in the culture medium was quantified by the Griess method and in reference to Shan Lin et al., Molecular Nutrition and Food Research 57 (2013) p 1135-1144, “Auraptene suppresses inflammatory responses in activated RAW264 macrophages by inhibiting p38 mitogen-activated protein kinase activation”, the section of Material and methods Measurements of TNF-α, MCP-1, and NO concentrations. The quantification was actually performed as follows. RAW264.7 culture medium treated with LPS and various compounds for 24 hr was recovered. 0.2% N-(1-naphthyl) ethylenediamine and 2% Sulfanilamide/10% H3PO4 were blended at 1:1 immediately before reaction to give a Griess reagent, RAW264.7 culture medium and the Griess reagent were mixed at 1:1 and reacted at room temperature for 10 min. After completion of the reaction, absorbance at 550 nm was measured. NaNO2 was used as the NO2^− standard product, and the NO2^− concentration in the culture medium was calculated. The concentration of the sample was adjusted with ethanol. Ethanol was used as a negative control, and BAY11-7082 (5 μM), which is a IκBα phosphorylation inhibitor, was used as a positive control.

SMILES: CCCCCC(=O)CC/C=C\CCCCCCCC(=O)O [No. 15, 13-oxo-cis-9-octadecenoic acid]
- anti-inflammatory action: have an anti-inflammatory action

SMILES: CCCCC/C=C\CC(O)CCCCCCCCC(=O)O (stereo not drawn) [No. 4, 10-hydroxy-cis-12-octadecenoic acid]
- anti-inflammatory action: have an anti-inflammatory action

SMILES: CCCCCC(O)CC/C=C\CCCCCCCC(=O)O (stereo not drawn) [No. 14, 13-hydroxy-cis-9-octadecenoic acid]
- anti-inflammatory action: have an anti-inflammatory action

SMILES: CCCCC/C=C\CC(=O)CCCCCCCCC(=O)O [No. 6, 10-oxo-cis-12-octadecenoic acid]
- anti-inflammatory action: have an anti-inflammatory action
